The structures appear in SMILES notation.

This experiment relates to recombinant rabies virus 1088 strain expressing Gaussia Luciferase (GLuc) (1088/GLuc). The experiment is classed as cell-based. To be noted: read-out: Anti-rabies activity.

Regarding `CC(C)CNC(=O)[C@]12NC[C@H]3C[C@H]1CN(CCc1ccccc1)[C@H]2[C@@H]3CC(C)C` [IB-760], the IC50 was less than 5 µM.

For the compound `CC(C)CNC(=O)[C@]12NC[C@H]3C[C@H]1CN(Cc1cccc4ccccc14)[C@H]2[C@@H]3CC(C)C` [IB-762], the IC50 is less than 5 µM.

Consider `CC(C)CNC(=O)[C@]12NC[C@H]3C[C@H]1CN(Cc1cccc4ccccc14)[C@H]2[C@@H]3Cc1ccc(O)cc1` [IB-763], for which the IC50 was 10 to 30 µM.

For `CC(C)CNC(=O)[C@]12NC[C@H]3C[C@H]1CN(CC1CCCCC1)[C@H]2[C@@H]3Cc1ccc(O)cc1` [IB-770], the IC50 lay in the range of 10 to 30 µM.

With `O=C(NCc1ccccc1)[C@]12NC[C@H]3C[C@H]1CN(Cc1ccc(F)cc1)[C@H]2[C@@H]3Cc1ccccc1` [IB-772], the IC50 is less than 5 µM.

Consider `CC(C)C[C@@H]1[C@H]2CN[C@@]3(C(=O)NCc4ccccc4)[C@@H](C2)CN(Cc2ccc(F)cc2)[C@@H]13` [IB-773], for which the IC50 is less than 5 µM.

With `CC(C)CNC(=O)[C@]12NC[C@H]3C[C@H]1CN(Cc1ccc(F)cc1)[C@H]2[C@@H]3CCc1ccccc1` [IB-774], the IC50 was less than 5 µM.

For the compound `O=C(NCc1ccccc1)[C@]12NC[C@H]3C[C@H]1CN(Cc1ccccc1)[C@H]2[C@@H]3Cc1cccc2ccccc12` [IB-777], the IC50 was less than 5 µM.

Take `CC(C)CCNC(=O)[C@]12NC[C@H]3C[C@H]1CN(CC(C)C)[C@H]2[C@@H]3Cc1ccccc1` [IB-780]: the IC50 is less than 5 µM.

On to `CC(C)CN1C[C@@H]2C[C@@H]3CN[C@]2(C(=O)NCc2ccccc2)[C@@H]1[C@@H]3Cc1ccc(O)cc1` [IB-783], for which the IC50 fell in the range of 10 to 30 µM.

Consider `CC(C)CC[C@@H]1[C@H]2CN[C@@]3(C(=O)NCc4ccccc4)[C@@H](C2)CN(Cc2ccc(O)cc2)[C@@H]13` [IB-786], for which the IC50 fell in the range of 10 to 30 µM.

With `CC(C)C[C@@H]1[C@H]2CN[C@@]3(C(=O)NCc4ccccc4)[C@@H](C2)CN(Cc2ccc(O)cc2)[C@@H]13` [IB-787], the IC50 was 10 to 30 µM.

For the compound `O=C(NCc1cccc2ccccc12)[C@]12NC[C@H]3C[C@H]1CN(Cc1cccc4ccccc14)[C@H]2[C@@H]3CCc1ccccc1` [IB-804], the IC50 is less than 5 µM.

With `NC(=O)CCNC(=O)[C@]12NC[C@H]3C[C@H]1CN(Cc1ccccc1)[C@H]2[C@@H]3Cc1cccc2ccccc12` [IB-813], the IC50 was less than 5 µM.

Take `O=C(NCc1ccc(F)cc1)[C@]12NC[C@H]3C[C@H]1CN(CCO)[C@H]2[C@@H]3Cc1cccc2ccccc12` [IB-831]: the IC50 is less than 5 µM.

In the case of `CC(C)C[C@@H]1[C@H]2CN[C@@]3(C(=O)NCc4ccccc4)[C@@H](C2)CN(Cc2ccc(Cl)cc2)[C@@H]13` [IB-864], the IC50 was in the range of 5 to 10 µM.

As to `CC(C)C[C@@H]1[C@H]2CN[C@@]3(C(=O)NCc4ccccc4)[C@@H](C2)CN(Cc2cccc(Cl)c2)[C@@H]13` [IB-865], the IC50 fell in the range of 5 to 10 µM.

`COc1ccc(CN2C[C@@H]3C[C@@H]4CN[C@]3(C(=O)NCc3ccccc3)[C@@H]2[C@@H]4CC(C)C)cc1` [IB-866]: the IC50 lay within 5 to 10 µM.

For the compound `Cc1ccc(CN2C[C@@H]3C[C@@H]4CN[C@]3(C(=O)NCc3ccccc3)[C@@H]2[C@@H]4CC(C)C)cc1` [IB-867], the IC50 was in the range of 5 to 10 µM.

For `CC(C)C[C@@H]1[C@H]2CN[C@@]3(C(=O)NCc4ccc(Cl)cc4)[C@@H](C2)CN(CC(C)C)[C@@H]13` [IB-871], the IC50 was 10 to 30 µM.

Consider `CC(C)C[C@@H]1[C@H]2CN[C@@]3(C(=O)NCc4ccccc4)[C@@H](C2)CN(Cc2ccc(N(C)C)cc2)[C@@H]13` [IB-873], for which the IC50 was 5 to 10 µM.

Consider `CC(C)C[C@@H]1[C@H]2CN[C@@]3(C(=O)NCc4ccccc4)[C@@H](C2)CN(Cc2ccc(C(C)(C)C)cc2)[C@@H]13` [IB-874], for which the IC50 lay in the range of 5 to 10 µM.

For `CC(C)CC[C@@H]1[C@H]2CN[C@@]3(C(=O)NCc4ccccc4)[C@@H](C2)CN(CC(C)C)[C@@H]13` [IB-875], the IC50 was 10 to 30 µM.

`CC(C)CCN1C[C@@H]2C[C@@H]3CN[C@]2(C(=O)NCc2ccccc2)[C@@H]1[C@@H]3CC(C)C` [IB-876]: the IC50 fell in the range of 10 to 30 µM.

As for `CCOc1ccc(CN2C[C@@H]3C[C@@H]4CN[C@]3(C(=O)NCc3ccccc3)[C@@H]2[C@@H]4CC(C)C)cc1` [IB-878], the IC50 was in the range of 10 to 30 µM.

As to `CC(C)C[C@@H]1[C@H]2CN[C@@]3(C(=O)NCc4ccc5ccccc5c4)[C@@H](C2)CN(Cc2ccccc2)[C@@H]13` [IB-879], the IC50 is less than 5 µM.

Turning to `NC(=O)CN1C[C@H]2C[C@]3(C(=O)NCc4ccc(F)cc4)NC[C@H]2[C@H]1[C@H]3Cc1cccc2ccccc12` [IF-97], the IC50 was 10 to 30 µM.

For the compound `CCCCCCNC(=O)[C@@]12C[C@@H]3CN(CC(N)=O)[C@@H]([C@@H]3CN1)[C@H]2CCc1ccccc1` [IF-109], the IC50 is 10 to 30 µM.

`CCCCCCNC(=O)[C@@]12C[C@@H]3CN(CC(N)=O)[C@@H]([C@@H]3CN1)[C@H]2Cc1cccc2ccccc12` [IF-110]: the IC50 is less than 5 µM.

On to `NC(=O)CN1C[C@H]2C[C@]3(C(=O)NCc4ccc(O)cc4)NC[C@H]2[C@H]1[C@H]3Cc1cccc2ccccc12` [IF-137], for which the IC50 was less than 5 µM.

Consider `CC(C)CCN1C[C@H]2C[C@]3(C(=O)NC(C)C)NC[C@H]2[C@H]1[C@H]3CCCNC(=N)N` [IF-214], for which the IC50 fell in the range of 10 to 30 µM.

`NC(=O)CCNC(=O)[C@@]12C[C@@H]3CN(CCc4ccccc4)[C@@H]([C@@H]3CN1)[C@H]2CC(N)=O` [IF-219]: the IC50 was 10 to 30 µM.

For `NC(=O)C[C@@H]1[C@@H]2[C@@H]3CN[C@@]1(C(=O)NCc1cccc4ccccc14)C[C@@H]3CN2CCc1ccccc1` [IF-223], the IC50 is 10 to 30 µM.

With `CC(C)CNC(=O)[C@@]12C[C@@H]3CN(Cc4cccc5ccccc45)[C@@H]([C@@H]3CN1)[C@H]2CC(N)=O` [IF-226], the IC50 was in the range of 10 to 30 µM.

Turning to `NC(=O)C[C@@H]1[C@@H]2[C@@H]3CN[C@@]1(C(=O)NCCO)C[C@@H]3CN2Cc1cccc2ccccc12` [IF-230], the IC50 was 10 to 30 µM.

For the compound `CC(C)CNC(=O)[C@@]12C[C@@H]3CN(Cc4cccc5ccccc45)[C@@H]([C@@H]3CN1)[C@H]2CCCNC(=N)N` [IF-235], the IC50 was 10 to 30 µM.

For `N=C(N)NCCC[C@@H]1[C@@H]2[C@@H]3CN[C@@]1(C(=O)NCc1ccccc1)C[C@@H]3CN2Cc1cccc2ccccc12` [IF-236], the IC50 lay in the range of 10 to 30 µM.

For the compound `N=C(N)NCCC[C@@H]1[C@@H]2[C@@H]3CN[C@@]1(C(=O)NCCO)C[C@@H]3CN2Cc1cccc2ccccc12` [IF-239], the IC50 lay in the range of 10 to 30 µM.

As for `CCCCCCNC(=O)[C@@]12C[C@@H]3CN(Cc4cccc5ccccc45)[C@@H]([C@@H]3CN1)[C@H]2CCCNC(=N)N` [IF-243], the IC50 is less than 5 µM.

In the case of `CC(C)NC(=O)[C@@]12C[C@@H]3CN(Cc4cccc5ccccc45)[C@@H]([C@@H]3CN1)[C@H]2CCCNC(=N)N` [IF-244], the IC50 was less than 5 µM.

For `N=C(N)NCCC[C@@H]1[C@@H]2[C@@H]3CN[C@@]1(C(=O)NCc1ccc(F)cc1)C[C@@H]3CN2Cc1cccc2ccccc12` [IF-245], the IC50 is less than 5 µM.

Consider `NC(=O)C[C@@H]1[C@@H]2[C@@H]3CN[C@@]1(C(=O)NCc1ccccc1)C[C@@H]3CN2CC1CCCCC1` [IF-246], for which the IC50 was in the range of 10 to 30 µM.

Turning to `NC(=O)C[C@@H]1[C@@H]2[C@@H]3CN[C@@]1(C(=O)NCc1ccc(O)cc1)C[C@@H]3CN2CC1CCCCC1` [IF-247], the IC50 was 10 to 30 µM.

On to `NC(=O)C[C@@H]1[C@@H]2[C@@H]3CN[C@@]1(C(=O)NCCc1ccccc1)C[C@@H]3CN2CC1CCCCC1` [IF-251], for which the IC50 was in the range of 10 to 30 µM.

The record behind these values is patent US11780841B2, “3,6-methano-1H-pyrrolo[3,2-b]pyridine and 3,6-methano-1H-pyrrolo[3,2-c]pyridine compounds and medicaments using same” (priority 2018, dated 2023).
